Measured values as given in patent US10526316B2, “Quinoxaline and pyridopyrazine derivatives as PI3Kβ inhibitors” (Janssen Pharmaceutica NV, priority 2015, dated 2020).
Where two headings read alike, the source gives them in different places.

What was measured:
[1] = test system: Akt phosphorylated at Ser473 in PC-3 cells; assay: Cellular assay: phosphorylation of Akt at Ser473 in PC-3 cells (MSD ELISA); assay type: cell-based; conditions: PC-3 cells, 60 min compound incubation, MSD ELISA, read-out: IC50 pAkt_S473
Method in brief: (§1)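 PC-3 cells were exposed to compound or 0.3% DMSO for 60 min at 37° C, 5% CO2, then lysed in ice-cold buffer. Phospho-Akt was captured on site-specific antibody-coated plates and detected with Sulfo-tag anti-total Akt by electrochemiluminescence. IC50 values came from five-concentration response curves.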

[2] = test system: Akt phosphorylated at Thr308 in PC-3 cells; assay: Cellular assay: phosphorylation of Akt at Thr308 in PC-3 cells (MSD ELISA); assay type: cell-based; conditions: PC-3 cells, 60 min compound incubation, MSD ELISA, read-out: IC50 pAkt_Thr308
Method in brief: as §1

PI3Kδ = target: T1, PI3Kδ (Homo sapiens, UniProt O00329); assay: Enzyme binding assay (KINOMEscan, DiscoveRx); conditions: PIK3Cδ_h
T1 construct: purchased DiscoveRx Corporation, San Diego (contract service, KINOMEscan)
T1 sequence (O00329 1-1044): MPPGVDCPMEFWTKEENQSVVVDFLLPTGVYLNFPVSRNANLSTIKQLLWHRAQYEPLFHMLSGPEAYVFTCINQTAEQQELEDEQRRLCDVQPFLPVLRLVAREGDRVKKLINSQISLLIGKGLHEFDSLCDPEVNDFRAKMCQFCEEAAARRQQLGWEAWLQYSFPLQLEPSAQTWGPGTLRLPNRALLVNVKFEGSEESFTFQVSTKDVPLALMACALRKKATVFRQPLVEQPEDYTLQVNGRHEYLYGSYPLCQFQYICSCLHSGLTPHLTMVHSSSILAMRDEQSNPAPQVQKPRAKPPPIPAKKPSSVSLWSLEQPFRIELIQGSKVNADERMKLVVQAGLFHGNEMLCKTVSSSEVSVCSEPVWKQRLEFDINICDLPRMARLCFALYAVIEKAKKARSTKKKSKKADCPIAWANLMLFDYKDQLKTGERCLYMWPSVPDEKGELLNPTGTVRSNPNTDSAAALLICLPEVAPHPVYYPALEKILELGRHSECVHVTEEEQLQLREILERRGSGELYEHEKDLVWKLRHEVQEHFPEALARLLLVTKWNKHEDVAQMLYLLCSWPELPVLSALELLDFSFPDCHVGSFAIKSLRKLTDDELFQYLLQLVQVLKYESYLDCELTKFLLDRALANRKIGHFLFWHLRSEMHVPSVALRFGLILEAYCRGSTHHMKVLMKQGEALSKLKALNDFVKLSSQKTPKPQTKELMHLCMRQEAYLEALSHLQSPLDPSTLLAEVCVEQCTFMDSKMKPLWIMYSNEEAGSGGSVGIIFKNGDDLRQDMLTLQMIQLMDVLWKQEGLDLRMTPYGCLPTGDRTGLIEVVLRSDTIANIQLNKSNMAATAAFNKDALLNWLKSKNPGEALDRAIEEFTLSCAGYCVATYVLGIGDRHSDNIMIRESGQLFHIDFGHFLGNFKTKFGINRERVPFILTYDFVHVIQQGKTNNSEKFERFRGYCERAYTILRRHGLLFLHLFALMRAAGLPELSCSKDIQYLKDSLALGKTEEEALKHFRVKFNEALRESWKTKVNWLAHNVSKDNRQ
Method in brief: (§2)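 Uses KINOMEscan technology to determine binding affinity toward the kinase enzymes.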

kinase enzymes [3] = target: T2, kinase enzymes (Homo sapiens, UniProt P42345); assay: Enzyme binding assay (KINOMEscan, DiscoveRx), further kinases of Table A; conditions: MTOR_h
T2 construct: purchased DiscoveRx Corporation, San Diego (contract service, KINOMEscan)
Method in brief: as §2

kinase enzymes [4] = target: T3, kinase enzymes (Homo sapiens, UniProt P48736); assay: as above; conditions: PIK3Cγ_h
T3 construct: purchased DiscoveRx Corporation, San Diego (contract service, KINOMEscan)
T3 sequence (P48736 whole entry): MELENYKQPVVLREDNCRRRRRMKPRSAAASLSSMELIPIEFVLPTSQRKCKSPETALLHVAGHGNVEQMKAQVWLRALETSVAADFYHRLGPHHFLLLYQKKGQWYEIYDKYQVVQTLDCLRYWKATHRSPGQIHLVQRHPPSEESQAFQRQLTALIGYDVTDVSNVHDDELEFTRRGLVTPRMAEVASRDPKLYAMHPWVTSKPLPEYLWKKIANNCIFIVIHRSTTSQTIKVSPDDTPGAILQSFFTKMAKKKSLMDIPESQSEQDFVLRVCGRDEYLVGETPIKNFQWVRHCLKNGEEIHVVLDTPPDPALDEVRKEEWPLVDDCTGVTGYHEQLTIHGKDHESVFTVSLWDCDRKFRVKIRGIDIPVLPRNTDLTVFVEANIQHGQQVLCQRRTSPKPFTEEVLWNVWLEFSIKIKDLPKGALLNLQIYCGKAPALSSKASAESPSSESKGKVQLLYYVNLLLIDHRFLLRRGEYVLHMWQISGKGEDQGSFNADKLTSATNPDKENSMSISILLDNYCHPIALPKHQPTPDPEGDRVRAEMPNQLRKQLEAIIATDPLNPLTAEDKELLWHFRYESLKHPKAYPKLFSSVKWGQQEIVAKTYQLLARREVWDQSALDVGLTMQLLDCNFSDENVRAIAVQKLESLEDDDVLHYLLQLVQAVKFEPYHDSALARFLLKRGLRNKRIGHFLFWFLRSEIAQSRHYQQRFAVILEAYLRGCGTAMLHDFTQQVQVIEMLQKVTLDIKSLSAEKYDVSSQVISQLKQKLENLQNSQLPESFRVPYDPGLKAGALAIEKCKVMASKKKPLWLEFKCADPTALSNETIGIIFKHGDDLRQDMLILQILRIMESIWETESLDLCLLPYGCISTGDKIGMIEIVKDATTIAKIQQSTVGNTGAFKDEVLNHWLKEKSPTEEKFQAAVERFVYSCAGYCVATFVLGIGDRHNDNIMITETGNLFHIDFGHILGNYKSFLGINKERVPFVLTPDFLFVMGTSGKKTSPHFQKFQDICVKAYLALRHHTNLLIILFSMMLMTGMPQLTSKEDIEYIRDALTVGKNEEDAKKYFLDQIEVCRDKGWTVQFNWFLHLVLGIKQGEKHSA
Method in brief: as §2

kinase enzymes [5] = target: T4, kinase enzymes (Homo sapiens, UniProt P42336); assay: as above; conditions: PIK3Cα_h
T4 construct: purchased DiscoveRx Corporation, San Diego (contract service, KINOMEscan)
T4 sequence (P42336 whole entry): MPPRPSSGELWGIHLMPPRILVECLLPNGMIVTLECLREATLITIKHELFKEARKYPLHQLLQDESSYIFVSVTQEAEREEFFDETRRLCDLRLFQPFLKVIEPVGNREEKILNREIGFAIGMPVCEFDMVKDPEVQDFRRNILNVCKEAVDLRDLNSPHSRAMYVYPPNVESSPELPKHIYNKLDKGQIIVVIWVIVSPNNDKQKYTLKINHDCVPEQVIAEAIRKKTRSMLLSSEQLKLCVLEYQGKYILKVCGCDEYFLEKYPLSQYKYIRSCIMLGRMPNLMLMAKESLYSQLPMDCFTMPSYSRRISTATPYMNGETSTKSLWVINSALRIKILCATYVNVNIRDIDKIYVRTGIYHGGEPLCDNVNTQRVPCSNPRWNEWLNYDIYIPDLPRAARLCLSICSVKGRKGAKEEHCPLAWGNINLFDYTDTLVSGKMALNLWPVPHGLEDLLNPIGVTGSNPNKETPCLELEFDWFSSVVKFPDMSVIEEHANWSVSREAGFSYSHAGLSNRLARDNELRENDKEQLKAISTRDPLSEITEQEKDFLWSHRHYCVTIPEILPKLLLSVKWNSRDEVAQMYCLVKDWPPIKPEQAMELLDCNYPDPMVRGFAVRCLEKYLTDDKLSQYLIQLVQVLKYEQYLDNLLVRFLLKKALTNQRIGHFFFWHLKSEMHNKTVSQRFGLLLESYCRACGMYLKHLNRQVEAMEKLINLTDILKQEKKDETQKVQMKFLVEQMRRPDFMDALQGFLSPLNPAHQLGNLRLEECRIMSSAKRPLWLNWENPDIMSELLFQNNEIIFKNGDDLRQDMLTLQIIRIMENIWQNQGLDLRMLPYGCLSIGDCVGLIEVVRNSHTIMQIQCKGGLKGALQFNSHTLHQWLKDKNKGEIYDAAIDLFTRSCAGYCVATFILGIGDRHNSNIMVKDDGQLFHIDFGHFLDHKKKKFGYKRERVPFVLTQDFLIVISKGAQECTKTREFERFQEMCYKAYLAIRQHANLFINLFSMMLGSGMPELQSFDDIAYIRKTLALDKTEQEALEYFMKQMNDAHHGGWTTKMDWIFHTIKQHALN
Method in brief: as §2

PI3Kβ = target: T5, PI3Kβ (Homo sapiens, UniProt P42338); assay: Enzyme binding assay (KINOMEscan, DiscoveRx); conditions: PIK3Cβ_h, read-out: Kd PIK3Cβ_h
T5 construct: purchased DiscoveRx Corporation, San Diego (contract service, KINOMEscan)
T5 sequence (P42338 whole entry): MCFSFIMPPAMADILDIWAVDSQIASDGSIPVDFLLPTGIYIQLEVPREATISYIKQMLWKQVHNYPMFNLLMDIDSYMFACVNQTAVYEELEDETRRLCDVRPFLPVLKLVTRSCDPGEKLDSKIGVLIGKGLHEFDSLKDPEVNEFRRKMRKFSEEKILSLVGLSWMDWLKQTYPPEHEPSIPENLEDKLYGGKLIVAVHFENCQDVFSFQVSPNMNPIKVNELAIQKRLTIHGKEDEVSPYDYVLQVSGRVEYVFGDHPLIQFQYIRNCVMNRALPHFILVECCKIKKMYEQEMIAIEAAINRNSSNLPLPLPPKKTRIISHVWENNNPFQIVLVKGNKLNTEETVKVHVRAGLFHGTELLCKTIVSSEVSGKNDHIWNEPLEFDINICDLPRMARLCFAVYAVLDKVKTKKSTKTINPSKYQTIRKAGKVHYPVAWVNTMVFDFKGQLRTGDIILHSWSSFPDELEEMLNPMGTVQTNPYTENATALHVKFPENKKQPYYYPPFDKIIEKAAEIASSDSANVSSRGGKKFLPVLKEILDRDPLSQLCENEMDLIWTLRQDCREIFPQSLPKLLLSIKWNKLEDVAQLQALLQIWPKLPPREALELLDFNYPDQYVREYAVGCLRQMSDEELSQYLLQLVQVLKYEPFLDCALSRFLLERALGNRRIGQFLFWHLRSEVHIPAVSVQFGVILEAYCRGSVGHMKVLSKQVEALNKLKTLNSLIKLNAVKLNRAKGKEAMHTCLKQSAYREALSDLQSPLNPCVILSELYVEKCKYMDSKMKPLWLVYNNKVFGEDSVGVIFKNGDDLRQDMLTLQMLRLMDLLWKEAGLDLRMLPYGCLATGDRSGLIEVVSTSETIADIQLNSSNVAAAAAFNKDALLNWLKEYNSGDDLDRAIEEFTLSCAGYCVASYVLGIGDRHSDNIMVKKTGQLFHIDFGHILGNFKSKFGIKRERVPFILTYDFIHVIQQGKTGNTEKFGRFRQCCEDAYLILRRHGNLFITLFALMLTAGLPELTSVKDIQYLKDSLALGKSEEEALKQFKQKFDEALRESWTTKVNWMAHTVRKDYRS
Method in brief: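 Using the KINOMEscan format, the enzyme binding affinity of each compound was determined. Each value is the inhibitor binding constant, Kd (nM).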

IC50 ([1]; Homo sapiens, PC-3, 1 h) [nM]	melting point [°C]	IC50 ([2]; Homo sapiens, PC-3, 1 h) [nM]	Kd (PI3Kδ) [nM]	Kd (kinase enzymes [3]) [nM]	Kd (kinase enzymes [4]) [nM]	Kd (kinase enzymes [5]) [nM]	Kd (PI3Kβ) [nM]	IC50 [1] [nM]	IC50 [2] [nM]	SMILES
74	80	66	174	23400	631	234	1	–	–	CN(C)C(=O)c1cc(C2CCCN2c2cc(F)cc(C=O)c2)c2nc(N3CCOCC3)cnc2c1 (stereo not shown) [Compound 44]
~26.3	161	18	776	23400	12600	3240	0.2	–	–	CN(C)CCNC(=O)c1cc(CNc2cc(F)cc(F)c2)c2nc(N3CCOCC3)cnc2c1 [Compound 394]
~219	235	~295	1170	> 30200	13500	3720	15	–	–	CC(Oc1cc(F)ccc1Br)c1cc(C(=O)N(C)C)cc2ncc(N3CCOCC3)nc12 (stereo not shown) [Compound 78]
–	240	–	158	1320	813	112	2	> 513	> 513	CC(Nc1cc(F)cc(F)c1)c1cc(C(=O)O)cc2ncc(N3CCOCC3)nc12 (stereo not shown) [Compound 83a]
> 513	125	> 513	> 30200	> 30200	> 30200	> 30200	2690	–	–	CC(Nc1ccc(F)c(F)c1)c1cc(C(=O)N2CCN3CCC[C@@H]3C2)cc2ncc(N3CCOCC3)nc12 (single isomer, unassigned) [Compound 347a]
–	124	–	1780	22900	6310	6030	42	> 513	> 513	CC(Nc1ccc(F)c(F)c1)c1cc(C(=O)NCC2CCCN2)cc2ncc(N3CCOCC3)nc12 (single isomer, unassigned) [Compound 329b]
59	80	32	263	> 30200	26300	5750	3	–	–	CC(Nc1cc(Cl)cc(Cl)c1)c1cc(C(=O)N2CCOCC2)cc2ncc(N3CCOCC3)nc12 (stereo not shown) [Compound 133]
–	80	–	3420	> 30200	13500	8320	11	188	207	CNCCN(C)C(=O)c1cc(C(C)Nc2cc(F)c(F)c(F)c2)c2nc(N3CCOCC3)cnc2c1 (single isomer, unassigned) [Compound 335b]
363	80	372	1550	21900	22400	3630	17	–	–	CCN(c1cccc(F)c1)C(C)c1cc(C(=O)N2CCOCC2)cc2ncc(N3CCOCC3)nc12 (stereo not shown) [Compound 20]
5	120	6	219	14500	955	339	1	–	–	O=Cc1cc(C2CCCN2c2cc(F)cc(F)c2)c2nc(N3CCOCC3)cnc2c1 (stereo not shown) [Compound 250]
–	74	–	9550	> 30200	> 30200	22900	1380	> 513	> 513	CC(Oc1cccc(F)c1)c1cc(C(=O)N2CCC[C@H]2CO)cc2ncc(N3CCOCC3)nc12 (single isomer, unassigned) [Compound 87]
105	80	81	490	> 30200	11700	2240	2	–	–	CC(Nc1cccc(Cl)c1)c1cc(C(=O)N2CCOCC2)cc2ncc(N3CCOCC3)nc12 (stereo not shown) [Compound 119]
–	134	~398	20400	> 30200	17800	5010	117	~447	–	CC(Nc1cc(F)cc(F)c1)c1cc(C(=O)N(C)CCN(C)C)cc2ncc(N3CCOCC3)nc12 (single isomer, unassigned) [Compound 181]
56	80	32	96	8510	1290	692	1	–	–	CC(Nc1cc(F)cc(F)c1)c1cc(CO)cc2ncc(N3CCOCC3)nc12 (stereo not shown) [Compound 84]
–	200	–	3390	1350	1950	1660	14	> 513	> 513	CC(Nc1cc(F)cc(F)c1)c1cc(C(=O)NS(N)(=O)=O)cc2ncc(N3CCOCC3)nc12 (single isomer, unassigned) [Compound 243b]
–	307	–	> 30200	> 30200	> 10000	> 30200	1020	> 513	> 513	CCN1CCN(C(=O)c2cc(C(C)Nc3cccc(F)c3)c3nc(N4CCOCC4)cnc3c2)CC1 (single isomer, unassigned) [Compound 113]
49	80	43	813	> 30200	13800	7410	5	–	–	CC(C)NCCNC(=O)c1cc(C(C)Nc2ccc(F)c(F)c2)c2nc(N3CCOCC3)cnc2c1 (stereo not shown) [Compound 364]
